For twelve compounds, EC50 results are on record in patent publication US9751874B2, “Hydroxy containing FXR (NR1H4) modulating compounds” (Gilead Sciences, Inc., priority 2014, dated 2017).

The target in test [1] is T1, human FXR alpha ligand binding domain (Homo sapiens, UniProt Q96RI1).
T1 construct: made in house; host or cells: E. coli BL21(DE3), vector pDEST15
T1 sequence (Q96RI1 187-472 isoform Q96RI1-2): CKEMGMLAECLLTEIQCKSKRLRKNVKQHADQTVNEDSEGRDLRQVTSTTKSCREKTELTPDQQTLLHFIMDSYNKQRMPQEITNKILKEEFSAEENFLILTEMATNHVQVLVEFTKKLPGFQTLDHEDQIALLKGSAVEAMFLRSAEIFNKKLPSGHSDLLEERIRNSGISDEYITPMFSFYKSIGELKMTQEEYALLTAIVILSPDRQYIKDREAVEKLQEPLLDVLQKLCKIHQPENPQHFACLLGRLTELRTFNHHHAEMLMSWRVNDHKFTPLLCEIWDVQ
As to the kind of experiment: FRET activity assay (ligand mediated cofactor peptide interaction, LANCE). It counts as biochemical. The settings on record: GST-FXR-LBD / biotinylated SRC-1 peptide (676-700), read-out: F EC50. As for the experimental part:
Determination of a ligand mediated cofactor peptide interaction to quantify ligand binding to the nuclear receptor FXR was performed as follows: Preparation of human FXR alpha ligand binding domain: The human FXRalpha LBD was expressed in E. coli strain BL21(DE3) as an N-terminally GST tagged fusion protein. The DNA encoding the FXR ligand binding domain was cloned into vector pDEST15 (Invitrogen). Expression was under control of an IPTG inducible T7 promoter. The amino acid boundaries of the ligand binding domain were amino acids 187-472 of Database entry NM_005123 (RefSeq). Expression and purification of the FXR-LBD: An overnight preculture of a transformed E. coli strain was diluted 1:20 in LB-Ampicillin medium and grown at 30° C. to an optical density of OD600=0.4-0.6. Gene expression was then induced by addition of 0.5 mM IPTG. Cells were incubated an additional 6 h at 30° C., 180 rpm. Cells were collected by centrifugation (7000×g, 7 min, rt). Per liter of original cell culture, cells were resuspended in 10 mL lysis buffer (50 mM Glucose, 50 mM Tris pH 7.9, 1 mM EDTA and 4 mg/mL lysozyme) and left on ice for 30 min. Cells were then subjected to sonication and cell debris removed via centrifugation (22000×g, 30 min, 4° C.). Per 10 mL of supernatant 0.5 mL prewashed Glutathione 4B sepharose slurry (Qiagen) was added and the suspension kept slowly rotating for 1 h at 4° C. Glutathione 4B sepharose beads were pelleted by centrifugation (2000×g, 15 sec, 4° C.) and washed twice in wash buffer (25 mM Tris, 50 mM KCl, 4 mM MgCl2 and 1M NaCl). The pellet was resuspended in 3 mL elution buffer per liter of original culture (elution buffer: 20 mM Tris, 60 mM KCl, 5 mM MgCl2 and 80 mM glutathione added immediately prior to use as powder). The suspension was left rotating for 15 min at 4° C., the beads pelleted and eluted again with half the volume of elution buffer than the first time. The eluates were pooled and dialysed overnight in 20 mM Hepes buffer (pH 7.5) containing 60 mM KCl, 5 mM MgCl2 as well as 1 mM dithiothreitol and 10% (v/v) glycerol. The protein was analysed by SDS-Page.
The method measures the ability of putative ligands to modulate the interaction between the purified bacterial expressed FXR ligand binding domain (LBD) and a synthetic biotinylated peptide based on residues 676-700 of SRC-1 (LCD2, 676-700). The sequence of the peptide used was B—[…]—COOH where the N-terminus was biotinylated (B). The ligand binding domain (LBD) of FXR was expressed as fusion protein with GST in BL-21 cells using the vector pDEST15. Cells were lysed by sonication, and the fusion proteins purified over glutathione sepharose (Pharmacia) according to the manufacturers instructions. For screening of compounds for their influence on the FXR-peptide interaction, the Perkin Elmer LANCE technology was applied. This method relies on the binding dependent energy transfer from a donor to an acceptor fluorophor attached to the binding partner of interest. For ease of handling and reduction of background from compound fluorescence LANCE technology makes use of generic fluorophore labels and time resolved detection Assays were done in a final volume of 25 μL in a 384 well plate, in a Tris-based buffer (20 mM Tris-HCl pH 7.5; 60 mM KCl, 5 mM MgCl2; 35 ng/μL BSA), containing 20-60 ng/well recombinantly expressed FXR-LBD fused to GST, 200-600 nM N-terminally biotinylated peptide, representing SRC1 aminoacids 676-700, 200 ng/well Streptavidin-xIAPC conjugate (Prozyme) and 6-10 ng/well Eu W1024-antiGST (Perkin Elmer). DMSO content of the samples was kept at 1%. After generation of the assay mix and diluting the potentially FXR modulating ligands, the assay was equilibrated for 1 h in the dark at rt in FIA-plates black 384 well (Greiner). The LANCE signal was detected by a Perkin Elmer VICTOR2VTM Multilabel Counter. The results were visualized by plotting the ratio between the emitted light at 665 and 615 nm. […]
On the technique in general: Time-resolved FRET reads energy transfer from a long-lived donor to a nearby acceptor.

For test [2], the target named is T2, FXR ligand binding domain (Homo sapiens, UniProt Q96RI1).
T2 construct: expressed in transfected cells; host or cells: HEK293 cells, transiently transfected with pCMV-BD-FXR-LBD, pFR-Luc and pRL-CMV
T2 sequence (Q96RI1 187-472 isoform Q96RI1-2): T1 sequence (Q96RI1 187-472 isoform Q96RI1-2)
As to the kind of experiment: Mammalian One Hybrid (M1H) assay, Gal4 promoter driven transactivation in HEK293 cells. The format is cell-based. As to conditions: Gal4-FXR-LBD luciferase reporter, 16 h. As for the experimental part: Mammalian One Hybrid (M1H) Assay
Determination of a ligand mediated Gal4 promoter driven transactivation to quantify ligand binding mediated activation of FXR was performed as follows: The cDNA part encoding the FXR ligand binding domain was cloned into vector pCMV-BD (Stratagene) as a fusion to the yeast GAL4 DNA binding domain under the control of the CMV promoter. The amino acid boundaries of the ligand binding domain were amino acids 187-472 of Database entry NM_005123 (RefSeq). The plasmid pFR-Luc (Stratagene) was used as the reporter plasmid, containing a synthetic promoter with five tandem repeats of the yeast GAL4 binding sites, driving the expression of the Photinus pyralis (American firefly) luciferase gene as the reporter gene. In order to improve experimental accuracy the plasmid pRL-CMV (Promega) was cotransfected. pRL-CMV contains the constitutive CMV promoter, controlling the expression of the Renilla reniformis luciferase. All Gal4 reporter gene assays were done in HEK293 cells (obtained from DSMZ, Braunschweig, Germany) grown in MEM with L-Glutamine and Earle's BSS supplemented with 10% fetal bovine serum, 0.1 mM nonessential amino acids, 1 mM sodium pyruvate, and 100 units Penicilin/[…] per mL at 37° C. in 5% CO2. Medium and supplements were obtained from Invitrogen. For the assay, […] cells were plated per well in 96 well plates in 100 μL per well MEM without Phenol Red and L-Glutamine and with Earle's BSS supplemented with 10% charcoal/dextran treated FBS (HyClone, South Logan, Utah), 0.1 mM nonessential amino acids, 2 mM glutamine, 1 mM sodium pyruvate, and 100 units Penicilin/[…] per mL, incubated at 37° C. in 5% CO2. The following day the cells were >90% confluence. Medium was removed and cells were transiently transfected using 20 μL per well of a OptiMEM—polyethylene-imine-based transfection-reagent (OptiMEM, Invitrogen; Polyethyleneimine, Aldrich Cat No. 40,827-7) including the three plasmids described above. MEM with the same composition as used for plating cells was added 2-4 h after addition of transfection mixture. Then compound stocks, prediluted in MEM were added (final vehicle concentration not exceeding 0.1%). Cells were incubated for additional 16 h before firefly and renilla luciferase activities were measured sequentially in the same cell extract using a Dual-Light-Luciferase-Assay system (Dyer et al., Anal. Biochem. 2000, 282, 158-161). All experiments were done in triplicates.
(In general: A reporter such as luciferase makes a cellular process visible.)

As usually defined, the pEC50 is −log10 of the EC50, conventionally taken in molar units.

pEC50: −log10 of the molar value. Bounds are passed on as bounds.

For the compound `O=C(O)c1cc(F)c2nc([C@]3(O)[C@@H]4CC[C@H]3C[C@H](OCc3c(-c5c(Cl)c[n+]([O-])cc5Cl)noc3C3CC3)C4)sc2c1` [Example 22, 4-(4-((((1R,3s,5S,8r)-8-(6-Carboxy-4-fluorobenzo[d]thiazol-2-yl)-8-hydroxybicyclo[3.2.1]octan-3-yl)oxy)methyl)-5-cyclopropylisoxazol-3-yl)-3,5-dichloropyridine 1-oxide], the negative-log EC50 (pEC50) is 8.41 in test [1] and 6.85 in test [2].

On to `O=C(O)c1ccnc([C@]2(O)CC[C@@H](OCc3c(-c4c(Cl)cccc4Cl)noc3C3CC3)CC2)c1` [Example 11-6, 2-((1s,4s)-4-((5-Cyclopropyl-3-(2,6-dichlorophenyl)isoxazol-4-yl)methoxy)-1-hydroxycyclohexyl)isonicotinic acid], for which the figures for the pEC50 in test [1] and in test [2] were 7.40 and 7.29, respectively.

For `Cn1cc(C(=O)O)c2ccc([C@]3(O)CC[C@@H](OCc4c(-c5c(Cl)cccc5Cl)noc4C4CC4)CC3)cc21` [Example 11-42, 6-((1s,4s)-4-((5-Cyclopropyl-3-(2,6-dichlorophenyl)isoxazol-4-yl)methoxy)-1-hydroxycyclohexyl)-1-methyl-1H-indole-3-carboxylic acid], the negative logarithm of the EC50 (pEC50) in test [1] is 7.70; in test [2] it was 7.44.

As to `O=C(O)c1ccc2nc([C@]3(O)CC[C@H](OCc4c(C5CCC(F)(F)CC5)noc4C4CC4)CC3)sc2c1` [Example 11-2, 2-((1r,4r)-4-((5-Cyclopropyl-3-(4,4-difluorocyclohexyl)isoxazol-4-yl)methoxy)-1-hydroxycyclohexyl)benzo[d]thiazole-6-carboxylic acid], the negative logarithm of the EC50 (pEC50) in test [1] was 5.07; in test [2] it was below 5.52.

Regarding `O=C(O)c1ccnc2ccc([C@]3(O)CC[C@H](OCc4c(-c5c(Cl)cccc5Cl)noc4C4CC4)CC3)cc12` [Example 31, 6-((1r,4r)-4-((5-cyclopropyl-3-(2,6-dichlorophenyl)isoxazol-4-yl)methoxy)-1-hydroxycyclohexyl)quinoline-4-carboxylic acid], the pEC50 in test [1] was 5.31; in test [2] it was below 5.52.

For `CC(C)c1onc(-c2c(Cl)cccc2Cl)c1CO[C@@H]1C[C@H]2CC[C@@H](C1)[C@]2(O)c1nc2c(F)cc(C(=O)O)cc2s1` [Example 11-51, 2-((1R,3s,5S,8r)-3-((3-(2,6-Dichlorophenyl)-5-isopropylisoxazol-4-yl)methoxy)-8-hydroxybicyclo[3.2.1]octan-8-yl)-4-fluorobenzo[d]thiazole-6-carboxylic acid], the pEC50 was 8.43 in test [1] and 9.21 in test [2].

With `O=C(O)c1cc(F)c2nc(C3(O)C[C@H]4CC[C@@H](C3)C4OCc3c(-c4c(Cl)cccc4Cl)noc3C3CC3)sc2c1` (single isomer, unassigned) [Example 11-54], the figures for the pEC50 in test [1] and in test [2] were 6.09 and 6.41, respectively.

Turning to `O[C@@]1(c2nc3ccc(CN4CCOCC4)cc3s2)[C@@H]2CC[C@H]1C[C@H](OCc1c(-c3c(Cl)cccc3Cl)noc1C1CC1)C2` [Example 43, (1R,3s,5S,8r)-3-((5-Cyclopropyl-3-(2,6-dichlorophenyl)isoxazol-4-yl)methoxy)-8-(6-(morpholinomethyl)benzo[d]thiazol-2-yl)bicyclo[3.2.1]octan-8-ol], the pEC50 in test [1] and in test [2] was 7.82 each time.

On to `O=C(O)c1cnc2cc([C@]3(O)CC[C@@H](OCc4c(-c5c(Cl)cccc5Cl)noc4C4CC4)CC3)ccc2c1` [Example 11-43, 7-((1s,4s)-4-((5-Cyclopropyl-3-(2,6-dichlorophenyl)isoxazol-4-yl)methoxy)-1-hydroxycyclohexyl)quinoline-3-carboxylic acid], for which the pEC50 was 7.80 in test [1] and 5.74 in test [2].

With `CS(=O)(=O)NC(=O)c1cc(F)c2nc([C@]3(O)CC[C@@H](OCc4c(-c5c(Cl)cccc5Cl)noc4C4CC4)CC3)sc2c1` [Example 16, 2-((1s,4s)-4-((5-Cyclopropyl-3-(2,6-dichlorophenyl)isoxazol-4-yl)methoxy)-1-hydroxycyclohexyl)-4-fluoro-N-(methylsulfonyl)benzo[d]thiazole-6-carboxamide], the pEC50 was 7.66 in test [1] and 5.72 in test [2].

With `CC(C)(Cc1cccc([C@]2(O)[C@@H]3CC[C@H]2C[C@H](OCc2c(-c4c(Cl)cccc4Cl)noc2C2CC2)C3)c1)C(=O)O` [Example 11-53, 3-(3-((1R,3s,5S,8r)-3-((5-Cyclopropyl-3-(2,6-dichlorophenyl)isoxazol-4-yl)methoxy)-8-hydroxybicyclo[3.2.1]octan-8-yl)phenyl)-2,2-dimethylpropanoic acid], the pEC50 was 6.63 in test [1] and 6.41 in test [2].

In the case of `O=C(O)c1ccc2nc([C@]3(O)CC[C@@H](OCc4c(-c5ccccc5C(F)F)noc4C4CC4)CC3)sc2c1` [Example 11-15, 2-((1s,4s)-4-((5-Cyclopropyl-3-(2-(difluoromethyl)phenyl)isoxazol-4-yl)methoxy)-1-hydroxycyclohexyl)benzo[d]thiazole-6-carboxylic acid], the pEC50 in test [1] was 5.82; in test [2] it was 5.66.
